The record followed here is patent publication US20250353820A1, “ANTIVIRAL PYRAZOLOPYRIDINONE COMPOUNDS” (Novartis AG, priority 2019, published 2025).

In the assay the target is human HSV DNA polymerase UL30 (Human herpesvirus 1 (strain 17) (HHV-1) (Human herpes simplex virus 1), UniProt P04293). The experiment in a line: biochemical. The following applies: 625 pM HSV polymerase, 20 minutes at room temperature; read-out: HSV-polymerase Biochemical IC50.
For `Cn1nc(-c2nnc(Cc3ccc(C#N)cc3)o2)c2c1C(=O)N(CC1(S(=O)(=O)C3CC3)CC1)CC2` [Example 26, 4-((5-(6-((1-(Cyclopropylsulfonyl)cyclopropyl)methyl)-1-methyl-7-oxo-4,5,6,7-tetrahydro-1H-pyrazolo[3,4-c]pyridin-3-yl)-1,3,4-oxadiazol-2-yl)methyl)benzonitrile], the 50% inhibitory concentration (IC50) stood at 3960 nM.
To `Cn1nc(C(=O)NCc2ccc(C#N)cc2)c2c1C(=O)N(CC1(S(=O)(=O)C(C)(C)COC(F)(F)CO)CC1)CC2` [Example 84, N-(4-Cyanobenzyl)-6-((1-((1-(1,1-difluoro-2-hydroxyethoxy)-2-methylpropan-2-yl)sulfonyl)cyclopropyl)methyl)-1-methyl-7-oxo-4,5,6,7-tetrahydro-1H-pyrazolo[3,4-c]pyridine-3-carboxamide] belongs 45 nM; to `CC(C)(O)Cn1nc(C(=O)NCc2ccc(C#N)cc2)c2c1C(=O)N(CC1(S(=O)(=O)C3(CO)CC3)CC1)CC2` [Example 234], 19 nM; to `Cn1nc(C(=O)NCc2ccc(Cl)s2)c2c1C(=O)N(CC1(S(=O)(=O)C3CC3)CC1)CC2` [Example 10, N-((5-Chlorothiophen-2-yl)methyl)-6-((1-(cyclopropylsulfonyl)cyclopropyl)methyl)-1-methyl-7-oxo-4,5,6,7-tetrahydro-1H-pyrazolo[3,4-c]pyridine-3-carboxamide], 641 nM.
To `CNC(=O)C(C)(C)S(=O)(=O)C1(CN2CCc3c(C(=O)NCc4ccc(Cl)cc4)nn(C)c3C2=O)CC1` [Example 110, N-(4-Chlorobenzyl)-1-methyl-6-((1-((2-methyl-1-(methylamino)-1-oxopropan-2-yl)sulfonyl)cyclopropyl)methyl)-7-oxo-4,5,6,7-tetrahydro-1H-pyrazolo[3,4-c]pyridine-3-carboxamide] belongs 166 nM; to `Cn1nc(C(=O)NCc2ccc(C#N)cc2)c2c1C(=O)N(CC1(S(=O)(=O)N3CCC(C)(O)C3)CC1)CC2` (single isomer, unassigned) [Example 130, (R)- or (S)-N-(4-Cyanobenzyl)-6-((1-((3-hydroxy-3-methylpyrrolidin-1-yl)sulfonyl)cyclopropyl)methyl)-1-methyl-7-oxo-4,5,6,7-tetrahydro-1H-pyrazolo[3,4-c]pyridine-3-carboxamide], 122 nM; to `Cn1nc(C(=O)NCc2ccc(C#N)c(F)c2)c2c1C(=O)N(CC1(S(=O)(=O)C3CC3)CC1)CC2` [Example 9, N-(4-Cyano-3-fluorobenzyl)-6-((1-(cyclopropylsulfonyl)cyclopropyl)methyl)-1-methyl-7-oxo-4,5,6,7-tetrahydro-1H-pyrazolo[3,4-c]pyridine-3-carboxamide], 45 nM.
`Cn1nc(C(=O)NCc2ccc(C#N)cc2)c2c1C(=O)N(CC1(S(=O)(=O)Nc3cc(C4CC4)on3)CC1)CC2` [Example 167]: the half-inhibitory concentration (IC50) stood at 104 nM.
Regarding `COC1CN(CC(C)(C)S(=O)(=O)C2(CN3CCc4c(C(=O)NCc5ccc(C#N)cc5)nn(C)c4C3=O)CC2)C1` [Example 66, N-(4-Cyanobenzyl)-6-((1-((1-(3-methoxyazetidin-1-yl)-2-methylpropan-2-yl)sulfonyl)cyclopropyl)methyl)-1-methyl-7-oxo-4,5,6,7-tetrahydro-1H-pyrazolo[3,4-c]pyridine-3-carboxamide], the IC50 is 50 nM.
On to `Cn1nc(C(=O)NCc2ccc(C#N)cc2)c2c1C(=O)N(CC1(S(=O)(=O)C(C)(C)CN3CC(F)C3)CC1)CC2` [Example 60, N-(4-Cyanobenzyl)-6-((1-((1-(3-fluoroazetidin-1-yl)-2-methylpropan-2-yl)sulfonyl)cyclopropyl)methyl)-1-methyl-7-oxo-4,5,6,7-tetrahydro-1H-pyrazolo[3,4-c]pyridine-3-carboxamide], for which the 50% inhibitory concentration (IC50) came to 45 nM.
With `Cn1nc(C(=O)NCc2ccc(C#N)cc2)c2c1C(=O)N(CC1(S(=O)(=O)C(C)(C)COC(F)F)CC1)CC2` [Example 58, N-(4-Cyanobenzyl)-6-((1-((1-(difluoromethoxy)-2-methylpropan-2-yl)sulfonyl)cyclopropyl)methyl)-1-methyl-7-oxo-4,5,6,7-tetrahydro-1H-pyrazolo[3,4-c]pyridine-3-carboxamide], the half-inhibitory concentration (IC50) came out at 24 nM.
`Cn1nc(C(=O)NCc2ccc(C#N)cc2)c2c1C(=O)N(CC1(S(=O)(=O)C3CCOCC3)CC1)CC2` [Example 169]: the concentration for half-maximal inhibition (IC50) was determined as 238 nM.
For `N#Cc1ccc(CNC(=O)c2nn(CCCO)c3c2CCN(CC2(S(=O)(=O)C4CC4)CC2)C3=O)cc1` [Example 236, N-(4-Cyanobenzyl)-6-((1-(cyclopropylsulfonyl)cyclopropyl)methyl)-1-(3-hydroxypropyl)-7-oxo-4,5,6,7-tetrahydro-1H-pyrazolo[3,4-c]pyridine-3-carboxamide] the value was 91 nM.
For `Cn1nc(C(=O)NCc2ccc(C#N)cc2F)c2c1C(=O)N(CC1(S(=O)(=O)C3CC3)CC1)CC2` [Example 13, N-(4-Cyano-2-fluorobenzyl)-6-((1-(cyclopropylsulfonyl)cyclopropyl)methyl)-1-methyl-7-oxo-4,5,6,7-tetrahydro-1H-pyrazolo[3,4-c]pyridine-3-carboxamide] the value was 311 nM.
As to `Cn1nc(C(=O)NCc2ccc(Cl)cc2)c2c1C(=O)N(CC1(S(=O)(=O)Nc3ccccn3)CC1)CC2` [Example 158], the IC50 worked out at 58 nM.
As to `O=C(NCc1ccc(Cl)cc1)c1n[nH]c2c1CCN(CC1(S(=O)(=O)C3CC3)CC1)C2=O` [Example 44, N-(4-Chlorobenzyl)-6-((1-(cyclopropylsulfonyl)cyclopropyl)methyl)-7-oxo-4,5,6,7-tetrahydro-1H-pyrazolo[3,4-c]pyridine-3-carboxamide], the half-inhibitory concentration (IC50) amounted to 137 nM.
For `Cc1cc(NS(=O)(=O)C2(CN3CCc4c(C(=O)NCc5ccc(Cl)cc5)nn(C)c4C3=O)CC2)no1` [Example 166] the value was 12 nM; for `Cn1nc(C(=O)NCc2ccc(Cl)cc2)c2c1C(=O)N(CC1(S(=O)(=O)C(F)F)CC1)CC2` [Example 39, N-(4-Chlorobenzyl)-6-((1-((difluoromethyl)sulfonyl)cyclopropyl)methyl)-1-methyl-7-oxo-4,5,6,7-tetrahydro-1H-pyrazolo[3,4-c]pyridine-3-carboxamide], 625 nM.
With `Cn1nc(C(=O)NCc2ccc(C#N)cc2)c2c1C(=O)N(CC1(S(=O)(=O)N3CC[C@@H](N)C3)CC1)CC2` [Example 141, (R)-6-((1-((3-Aminopyrrolidin-1-yl)sulfonyl)cyclopropyl)methyl)-N-(4-cyanobenzyl)-1-methyl-7-oxo-4,5,6,7-tetrahydro-1H-pyrazolo[3,4-c]pyridine-3-carboxamide], the IC50 was 192 nM.
Regarding `CC1(S(=O)(=O)C2(CN3CCc4c(C(=O)NCc5ccc(Cl)cc5)nn(CCOCCN)c4C3=O)CC2)CC1` [Example 223, 1-(2-(2-aminoethoxy)ethyl)-N-(4-chlorobenzyl)-6-((1-((1-methylcyclopropyl)sulfonyl)cyclopropyl)methyl)-7-oxo-4,5,6,7-tetrahydro-1H-pyrazolo[3,4-c]pyridine-3-carboxamide], the half-inhibitory concentration (IC50) turned out to be 35 nM.
To `Cn1nc(C(=O)NCc2ccc(C#N)cc2)c2c1C(=O)N(CC1(S(=O)(=O)C(C)(C)C#N)CC1)CC2` [Example 59, N-(4-Cyanobenzyl)-6-((1-((2-cyanopropan-2-yl)sulfonyl)cyclopropyl)methyl)-1-methyl-7-oxo-4,5,6,7-tetrahydro-1H-pyrazolo[3,4-c]pyridine-3-carboxamide] belongs 23 nM.
